# “Also recorded” adds a separate entry of the source.
# Test system: target microorganisms
# Assay: Screen of synthesized peptides for binding to target microorganisms (targeting peptides, Tables 2 and 3)
# Conditions: microorganism(s) the targeting peptide was identified as binding to (Table 3)
# Description: Once noted, these peptides were batch synthesized on a multiplex peptide synthesizer, yielding 5-10 mg of each peptide that could readily be screened for biological activity (e.g., binding activity and/or antimicrobial activity.
# Other suitable targeting peptides include the peptides that have been identified as binding to particular target organisms as shown in Table 3 and/or Table 4.
row,Substance,Target(s)
1,1T-144 (IIELHPKSWTQDWRCSFL; synthetic novel tartgeting peptide IT-144),"A. naeslundii, F. nucleatum,; also recorded: P. gingivalis,; also recorded: T. denticolaS. gordonii,; also recorded: S. mitis, S. mutans, S. oralis,; also recorded: S. salivarious, S. sanguinis"
2,1T-145 (VEAGKRNISLENIEKISKGLGISISELFKYIEEGEDKIG; synthetic novel tartgeting peptide IT-145),"S. mitis, S. mutans, S. oralis"
3,1T-146 (RNSADNQTKIDKIRIDISLWDEHLNIVKQGK; synthetic novel tartgeting peptide IT-146),"A. naeslundii, F. nucleatum,; also recorded: P. gingivalis,; also recorded: T. denticolaS. gordonii,; also recorded: S. mitis, S. mutans, S. oralis,; also recorded: S. salivarious, S. sanguinis"
4,1T-147 (GVENRRFYERDVSKVSMMTSEAVAPRGGSK; synthetic novel tartgeting peptide IT-147),"A. naeslundii, F. nucleatum,; also recorded: P. gingivalis,; also recorded: T. denticolaS. gordonii,; also recorded: S. mitis, S. mutans, S. oralis,; also recorded: S. salivarious, S. sanguinis"
5,1T-148 (IVELDDTTILERALSMLGEANA; synthetic novel tartgeting peptide IT-148),"A. naeslundii, F. nucleatum,; also recorded: P. gingivalis,; also recorded: T. denticolaS. gordonii,; also recorded: S. mitis, S. mutans, S. oralis,; also recorded: S. salivarious, S. sanguinis"
6,1T-149 (SVRAVKPIDETVARHFPGDFIVN; synthetic novel tartgeting peptide IT-149),"A. naeslundii, F. nucleatum,; also recorded: P. gingivalis,; also recorded: T. denticolaS. gordonii,; also recorded: S. mitis, S. mutans, S. oralis,; also recorded: S. salivarious, S. sanguinis"
7,1T-150 (YINRRLKKAFSDADIKEAPAEFYEELRRVQYV; synthetic novel tartgeting peptide IT-150),"A. naeslundii, F. nucleatum,; also recorded: P. gingivalis,; also recorded: T. denticolaS. gordonii,; also recorded: S. mitis, S. mutans, S. oralis,; also recorded: S. salivarious, S. sanguinis"
8,1T-151 (SVRAVKPIDEIVAWHFPGDFIVN; synthetic novel tartgeting peptide IT-151),"A. naeslundii, F. nucleatum,; also recorded: P. gingivalis,; also recorded: T. denticolaS. gordonii,; also recorded: S. mitis, S. mutans, S. oralis,; also recorded: S. salivarious, S. sanguinis"
9,1T-152 (YVSADESAYNHIVTDDIPLADRRIEAVQQ; synthetic novel tartgeting peptide IT-152),"A. naeslundii, F. nucleatum,; also recorded: P. gingivalis; also recorded: S. epidermidis,; also recorded: S. gordonii, S. mitis, S. mutans,; also recorded: S. oralis, S. salivarious,; also recorded: S. sanguinis"
10,1T-153 (YIACPGYFY; synthetic novel tartgeting peptide IT-153),"A. naeslundii, F. nucleatum,; also recorded: P. gingivalis; also recorded: S. epidermidis,; also recorded: S. gordonii, S. mitis, S. mutans,; also recorded: S. oralis, S. salivarious,; also recorded: S. sanguinis"
11,1T-154 (YFSFLEIVGMARR; synthetic novel tartgeting peptide IT-154),P. gingivalis
12,1T-155 (LKLAFGVYPFQAMSQSDTAVSERNVLWR; synthetic novel tartgeting peptide IT-155),"A. naeslundii, F. nucleatum,; also recorded: P. gingivalis; also recorded: S. epidermidis,; also recorded: S. gordonii, S. mitis, S. mutans,; also recorded: S. oralis, S. salivarious,; also recorded: S. sanguinis"
13,1T-156 (GRFQISIRGEEKSKVKVQGKGTFTDRNTT; synthetic novel tartgeting peptide IT-156),"A. naeslundii, F. nucleatum,; also recorded: P. gingivalis,; also recorded: T. denticolaS. gordonii,; also recorded: S. mitis, S. mutans, S. oralis,; also recorded: S. salivarious, S. sanguinis"
14,1T-157 (RRFRKTTENREKSKNKKAVLGLSTTSTASY; synthetic novel tartgeting peptide IT-157),"A. naeslundii, F. nucleatum,; also recorded: P. gingivalis,; also recorded: T. denticolaS. gordonii,; also recorded: S. mitis, S. mutans, S. oralis,; also recorded: S. salivarious, S. sanguinis"
15,1T-158 (WENKPSPLGSIKKLQGLVYRLIGYRHFWV; synthetic novel tartgeting peptide IT-158),"A. naeslundii, F. nucleatum,; also recorded: P. gingivalis; also recorded: S. epidermidis,; also recorded: S. gordonii, S. mitis, S. mutans,; also recorded: S. oralis, S. salivarious,; also recorded: S. sanguinis"
16,1T-159 (IFSLHHFALICSEMGTFAVSKRAKYKWEVL; synthetic novel tartgeting peptide IT-159),P. gingivalis
17,1T-160 (AQYKYINKLLN; synthetic novel tartgeting peptide IT-160),"A. naeslundii, F. nucleatum,; also recorded: P. gingivalis,; also recorded: T. denticolaS. gordonii,; also recorded: S. mitis, S. mutans, S. oralis,; also recorded: S. salivarious, S. sanguinis"
18,1T-161 (NKVLQVEVMWDGSVVGRPAGVISIKSSKKG; synthetic novel tartgeting peptide IT-161),"A. naeslundii, F. nucleatum,; also recorded: P. gingivalis; also recorded: S. epidermidis,; also recorded: S. gordonii, S. mitis, S. mutans,; also recorded: S. oralis, S. salivarious,; also recorded: S. sanguinis"
19,1T-162 (QKAKEESDRKAAVSYNGFHRVNVVSIPK; synthetic novel tartgeting peptide IT-162),"A. naeslundii, F. nucleatum,; also recorded: P. gingivalis,; also recorded: T. denticolaS. gordonii,; also recorded: S. mitis, S. mutans, S. oralis,; also recorded: S. salivarious, S. sanguinis"
20,1T-163 (MENILIYIPMVLSPFGSGILLFLGKDRRYML; synthetic novel tartgeting peptide IT-163),"A. naeslundii, F. nucleatum,; also recorded: P. gingivalis; also recorded: S. epidermidis,; also recorded: S. gordonii, S. mitis, S. mutans,; also recorded: S. oralis, S. salivarious,; also recorded: S. sanguinis"
21,1T-164 (KKSHSQGKRKLKDLNSAYKIDNQLHYALR; synthetic novel tartgeting peptide IT-164),"A. naeslundii, F. nucleatum,; also recorded: P. gingivalis; also recorded: S. epidermidis,; also recorded: S. gordonii, S. mitis, S. mutans,; also recorded: S. oralis, S. salivarious,; also recorded: S. sanguinis"
22,1T-165 (CYDSFDFSIFVTFANRMKLSVGS; synthetic novel tartgeting peptide IT-165),"A. naeslundii, F. nucleatum,; also recorded: P. gingivalis; also recorded: S. epidermidis,; also recorded: S. gordonii, S. mitis, S. mutans,; also recorded: S. oralis, S. salivarious,; also recorded: S. sanguinis"
23,1T-166 (AQSAGQIKRKSKVRIHV; synthetic novel tartgeting peptide IT-166),"A. naeslundii, F. nucleatum,; also recorded: P. gingivalis; also recorded: S. epidermidis,; also recorded: S. gordonii, S. mitis, S. mutans,; also recorded: S. oralis, S. salivarious,; also recorded: S. sanguinis"
24,1T-167 (SRMSEHSPAGLVFEVGPMDKGSFIILDSYHPTVKK; synthetic novel tartgeting peptide IT-167),"A. naeslundii, F. nucleatum,; also recorded: P. gingivalis; also recorded: S. epidermidis,; also recorded: S. gordonii, S. mitis, S. mutans,; also recorded: S. oralis, S. salivarious,; also recorded: S. sanguinis"
25,1T-168 (ELHRIMSTEKIGAVTKMNFDTAPIMSILPIDIYPKEVGIGS; synthetic novel tartgeting peptide IT-168),"A. naeslundii, F. nucleatum,; also recorded: P. gingivalis; also recorded: S. epidermidis,; also recorded: S. gordonii, S. mitis, S. mutans,; also recorded: S. oralis, S. salivarious,; also recorded: S. sanguinis"

# From patent US8389679B2, “Targeted antimicrobial moieties” (priority 2009, dated 2013)
